From patent US20210113522A1, “COUMARIN DERIVATIVE AS ANTI-ASTHMATIC AGENT, PHARMACEUTICAL COMPOSITION THEREOF, ITS PREPARATION AND USE” (I-NOVA MEDICINSKA ISTRAZIVANJA D.O.O., priority 2017, published 2021) come the findings set out here.

For the assay, the system named is croton oil-induced ear edema. The assay can be described thus: Croton oil-induced ear edema in mice. In kind it is in vivo, Balb/c mice. As to conditions: dexamethasone 1 mg/kg, 1 2 mg/kg. The text has this: The presents study aims to detect the inflammatory/anti-inflammatory potential effects of compound 1 in a model of acute skin inflammation induced by local application of phlogistic agent croton oil in Balb/c mice. The technique for croton oil-induced ear edema in mice, originally described by Tubaro et al., was followed, with modifications; see literature references 16 and 17: • 16) A. Tubaro, P. Dri, G. Delbello, C. Zilli, R. Della Loggia: The croton oil ear test revisited, Agents Actions 17 (1986) 347-349. • 17) G. Coruzzi, C. Pozzoli, M. Adami, D. Grandi, N. Guido, R. Smits, I. de Esch and R. Leurs: Strain-dependent effects of the histamine H4 receptor antagonist JNJ7777120 in a murine model of acute skin inflammation, Experimental Dermatology 21 (2011) 32-37.
Mice (total 40) were separated into 4 groups (n=10). Each group was treated under different regimen:
Cutaneous inflammation was induced in conscious mice by topical application of croton oil (5% in acetone).
Six hours after croton oil application, mice were euthanized by light ether anaesthesia, followed by cervical dislocation; both left (acetone) and right (croton oil in acetone) ears were removed, by cutting horizontally across the indentation at the base of the ear. For each mouse, the extent of the oedema was expressed as the difference in weight (Δ [mg]) between right (inflamed) and left (uninflamed) ear. The percentage increase in the oedema of the treated ear was calculated by the following formula: […]
The presents study aims to detect the inflammatory/anti-inflammatory potential effects of compound 1 in a model of acute skin inflammation induced by local application of phlogistic agent croton oil in Balb/c mice. The technique for croton oil-induced ear edema in mice, originally described by Tubaro et al., was followed, with modifications; see literature references 16 and 17.
In preliminary experiments, the effect of subcutaneous (s.c.) administration of saline, 100% DMSO or 20% 2-hydroxypropyl-β-cyclodextrin was investigated to check the vehicle effects on ear inflammation.
The statistical significance between the groups was assessed by one-way analysis of variance (ANOVA) followed by a post hoc Tukey test. The accepted level of significance for the test was P<0.05. All tests were carried out using GraphPad Software (San Diego, Calif., USA).

As for `C[C@@H]1C[C@H]2[C@@H]3CCC4=CC(=O)C=C[C@]4(C)[C@@]3(F)[C@@H](O)C[C@]2(C)[C@@]1(O)C(=O)CO` [dexamethasone, reference compound], where the note is “6 h after croton oil”, the “Percentage of increasing the ear edema” value is recorded as 44.2%. Also, the “Maximal inhibition of croton oil-induced ear oedema” value (Balb/c mice, 6 h) is recorded as “approximately 60%”. The Left ear m (left ear: 80% 2HPβCD + 20% DMSO (uninflamed), 6 h) came out at 0.0360 g. For the same compound, the Right ear m (right ear: substance + croton oil after 30 min, 6 h) amounted to 0.0519 g.
